Source: patent US11173145B2, “Compounds useful as inhibitors of indoleamine 2,3-dioxygenase and/or tryptophan dioxygenase” (Board of Regents, The University of Texas System, priority 2017, dated 2021)

How the values were obtained:
IDO1 = target: T1, IDO1 (Homo sapiens, UniProt P14902); experiment: IDO1 cell-based assay (HeLa cells, IFNgamma-induced, N-formylkynurenine/L-tryptophan by RFMS); details: 10 ng/mL IFNgamma, 24 hours
T1 construct: endogenous in cells; host or cells: HeLa cells (ATCC), IFNgamma-induced
T1 sequence (P14902 whole entry): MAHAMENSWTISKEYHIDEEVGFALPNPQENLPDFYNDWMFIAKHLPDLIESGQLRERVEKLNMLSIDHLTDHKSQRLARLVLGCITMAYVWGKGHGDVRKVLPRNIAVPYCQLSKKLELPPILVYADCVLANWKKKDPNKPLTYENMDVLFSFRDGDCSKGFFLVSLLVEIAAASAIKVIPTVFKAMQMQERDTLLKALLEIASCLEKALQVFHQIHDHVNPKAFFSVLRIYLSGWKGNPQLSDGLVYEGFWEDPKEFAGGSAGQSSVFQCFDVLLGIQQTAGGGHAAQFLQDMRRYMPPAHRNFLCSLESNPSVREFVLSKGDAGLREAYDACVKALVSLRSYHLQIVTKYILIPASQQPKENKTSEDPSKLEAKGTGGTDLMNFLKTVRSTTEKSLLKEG
Outline: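 HeLa cells stimulated with 10 ng/mL IFNgamma and exposed to compound (0.5% DMSO final) for 24 h at 37 °C. Conditioned media deproteinized, then N-formylkynurenine and L-tryptophan quantified by RapidFire MS with deuterated tryptophan internal standard; IC50 by curve fitting. Viability checked by CellTiter-Glo.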

mouse IDO1 = target: T2, mouse IDO1 (Mus musculus, UniProt P28776); experiment: Mouse IDO1 cell-based assay (PANC02 cells, mouse IFNgamma-induced, N-formylkynurenine/L-tryptophan by RFMS); details: 30 ng/mL mouse IFNgamma, 48 hours
T2 construct: The murine PANC02 pancreatic ductal adenocarcinoma cell line was routinely maintained in DMEM media; endogenous in cells; host or cells: PANC02 murine pancreatic ductal adenocarcinoma cells, induced with mouse IFNgamma
T2 sequence (P28776 whole entry): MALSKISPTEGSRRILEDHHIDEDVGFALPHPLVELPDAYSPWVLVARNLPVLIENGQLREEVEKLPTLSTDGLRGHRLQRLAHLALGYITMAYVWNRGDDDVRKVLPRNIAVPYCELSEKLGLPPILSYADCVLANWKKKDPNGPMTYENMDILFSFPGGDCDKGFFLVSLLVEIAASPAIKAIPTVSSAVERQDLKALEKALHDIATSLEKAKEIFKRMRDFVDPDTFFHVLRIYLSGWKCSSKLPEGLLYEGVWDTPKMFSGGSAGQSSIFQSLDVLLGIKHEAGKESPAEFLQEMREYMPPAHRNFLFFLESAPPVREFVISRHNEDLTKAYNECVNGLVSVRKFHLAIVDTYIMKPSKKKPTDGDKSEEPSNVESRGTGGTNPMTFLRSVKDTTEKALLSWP
Description: The murine PANC02 pancreatic ductal adenocarcinoma cell line was routinely maintained in DMEM media containing 10% FBS. Cells (3,000/well) were seeded onto a 384 well plate in 50 μl of media and incubated at 37° C., 5% CO2 overnight. Cell media was aspirated, fresh media containing 30 ng/mL mouse IFNgamma (Gibco Life Technologies, cat #PMC4031) was added, and cells were incubated in absence or presence of various concentrations of compounds (final 0.5% DMSO) for 48 hours at 37° C., 5% CO2. Aliquots of the cell conditioned media was removed from the cell plate, and mixed with equal volume of 200 mM ZnSO4 to precipitate media containing protein. Two volumes of acetonitrile were added by mixing, and samples were then centrifuged at 2250G for 20 minutes at 4° C. Aliquots of the supernatant were diluted 1:10 in 0.1% formic acid containing 3 μM of deuterated Tryptophan as an internal standard.
Samples were analyzed via RFMS to quantify N-Formyl Kynurenine (AUC) and L-tryptophan (AUC). A C18 cartridge was used with mobile phases of 0.1% Formic Acid and 80% ACN/0.1% Formic Acid under isocratic conditions. Dose-response curves were analyzed using IC50 regression curve fitting (GeneData Screener). Curves were plotted as percent of control and normalized by high controls without inhibitor (100%), and low controls (0%) containing 1 μM of epacadostat. Cell viability was also assessed using the Cell Titer Glo Kit (Promega) following manufacture recommendation.

| IC50 (IDO1) [nM] | IC50 (mouse IDO1) [nM] | Structure (SMILES) |
| --- | --- | --- |
| 200 to 2000 | > 5000 | CCC(NC(=O)c1ccc(Cl)cc1)[C@H]1[C@@H]2C[C@@H](NC(=O)c3cn[nH]c3)C[C@@H]21 (stereo partly drawn) [Compound 177, N-((1R,3s,5S,6r)-6-(1-(4-chlorobenzamido)propyl)bicyclo[3.1.0]hexan-3-yl)-1H-pyrazole-4-carboxamide] |
| < 200 | < 500 | CCC(NC(=O)c1ccc(Cl)cc1)[C@H]1[C@@H]2C[C@@H](n3ncc4cc(F)ccc43)C[C@@H]21 (stereo partly drawn) [Compound 208, 4-chloro-N-(1-((1R,3s,5S,6r)-3-(5-fluoro-1H-indazol-1-yl)bicyclo[3.1.0]hexan-6-yl)propyl)benzamide] |
| < 200 | < 500 | CCC(NC(=O)c1ccc(Cl)cc1)[C@H]1[C@@H]2C[C@@H](n3nncc3C3CC3)C[C@@H]21 (stereo partly drawn) [Compound 153, 4-chloro-N-(1-((1R,3s,5S,6r)-3-(5-cyclopropyl-1H-1,2,3-triazol-1-yl)bicyclo[3.1.0]hexan-6-yl)propyl)benzamide] |
| < 200 | 500 to 2000 | CCC(NC(=O)c1ccc(Cl)cc1)[C@H]1[C@@H]2C[C@@H](n3nc4cc(F)cc(F)c4n3)C[C@@H]21 (stereo partly drawn) [Compound 213, 4-chloro-N-(1-((1R,3s,5S,6r)-3-(4,6-difluoro-2H-benzo[d][1,2,3]triazol-2-yl)bicyclo[3.1.0]hexan-6-yl)propyl)benzamide] |
| 2000 to 5000 | > 5000 | O=C(NC(CO)[C@H]1[C@@H]2C[C@@H](n3cc(C4CC4)nn3)C[C@@H]21)c1ccc(Cl)cc1 (stereo partly drawn) [Compound 168, 4-chloro-N-(1-((1R,3s,5S,6r)-3-(4-cyclopropyl-1H-1,2,3-triazol-1-yl)bicyclo[3.1.0]hexan-6-yl)-2-hydroxyethyl)benzamide] |
| < 200 | > 5000 | CCC(NC(=O)c1ccc(Cl)cc1)[C@H]1[C@@H]2C[C@@H](NC(=O)c3cccnc3)C[C@@H]21 (stereo partly drawn) [Compound 145, N-((1R,3s,5S,6r)-6-(1-(4-chlorobenzamido)propyl)bicyclo[3.1.0]hexan-3-yl)nicotinamide] |
| 200 to 2000 | < 500 | CCC(NC(=O)c1ccc(Cl)cc1)[C@H]1[C@@H]2C[C@@H](C(C(=O)OC)c3ccccc3)C[C@@H]21 (mixture of isomers) [Compound 203, methyl (S)-2-((R, 3R, 5S,6S)-6-((S)-1-(4-chlorobenzamido)propyl)bicyclo[3.1.0]hexan-3-yl)-2-phenylacetate and methyl (R)-2-((1R,3R,5S, 6S)-6-((R)-1-(4-chlorobenzamido)propyl)bicyclo[3.1.0]hexan-3-yl)-2-phenylacetate] |
| < 200 | 500 to 2000 | CCC(NC(=O)c1ccc(Cl)cc1)[C@H]1[C@@H]2C[C@@H](NC(=O)c3ncccc3Cl)C[C@@H]21 (stereo partly drawn) [Compound 218, 3-chloro-N-((1R,3s,5S,6r)-6-(1-(4-chlorobenzamido)propyl)bicyclo[3.1.0]hexan-3-yl)picolinamide] |
| < 200 | 500 to 2000 | CCC(NC(=O)c1ccc(Cl)cc1)[C@H]1[C@@H]2C[C@@H](NC(=O)c3ncccc3F)C[C@@H]21 (stereo partly drawn) [Compound 188, N-((1R,3s,5S,6r)-6-(1-(4-chlorobenzamido)propyl)bicyclo[3.1.0]hexan-3-yl)-3-fluoropicolinamide] |
| < 200 | 500 to 2000 | CCC(NC(=O)c1ccc(Cl)cc1)[C@H]1[C@@H]2C[C@@H](Nc3ccc(F)cn3)C[C@@H]21 (stereo partly drawn) [Compound 227, 4-chloro-N-(1-((R, 3s, 5S, 6r)-3-((5-fluoropyridin-2-yl)amino)bicyclo[3.1.0]hexan-6-yl)propyl)benzamide] |
| < 200 | < 500 | CCC(NC(=O)c1ccc(Cl)cc1)[C@@H]1[C@H]2C=C(c3cncc(C(F)(F)F)c3)C[C@H]21 (stereo partly drawn) [Compound 254, 4-chloro-N-(1-((1R,5R,6S)-3-(5-(trifluoromethyl)pyridin-3-yl)bicyclo[3.1.0]hex-2-en-6-yl)propyl)benzamide] |
| 2000 to 5000 | 2000 to 5000 | CCC(NC(=O)c1ccc(Cl)cc1)[C@H]1[C@@H]2C[C@@H](C(C(=O)O)c3ccccc3)C[C@@H]21 (stereo partly drawn) [Compound 228, 2-((1R,3s, 5S, 6r)-6-(1-(4-chlorobenzamido)propyl)bicyclo[3.1.0]hexan-3-yl)-2-phenylacetic acid] |
| < 200 | 500 to 2000 | CCC(NC(=O)c1ccc(Cl)cc1)[C@H]1[C@@H]2C[C@@H](n3ncc(-c4ccccc4)n3)C[C@@H]21 (stereo partly drawn) [Compound 204, 4-chloro-N-(1-((1R,3s,5S,6r)-3-(4-phenyl-2H-1,2,3-triazol-2-yl)bicyclo[3.1.0]hexan-6-yl)propyl)benzamide] |
| > 5000 | 2000 to 5000 | O=C(Nc1ccc(Cl)cc1)[C@H]1[C@@H]2CN(c3ncnc4ccc(F)cc34)C[C@@H]21 [Compound 252, (1R,5S,6r)-N-(4-chlorophenyl)-3-(6-fluoroquinazolin-4-yl)-3-azabicyclo[3.1.0]hexane-6-carboxamide] |
| < 200 | 2000 to 5000 | CCC(NC(=O)c1ccc(Cl)cc1)[C@H]1[C@@H]2C[C@@H](NC(=O)c3cncc(Cl)n3)C[C@@H]21 (stereo partly drawn) [Compound 150, 6-chloro-N-((1R,3s,5S,6r)-6-(1-(4-chlorobenzamido)propyl)bicyclo[3.1.0]hexan-3-yl)pyrazine-2-carboxamide] |
| 200 to 2000 | 500 to 2000 | CCC(NC(=O)c1ccc(Cl)cc1)[C@H]1[C@@H]2C[C@@H](n3c(=O)[nH]c4cc(F)ccc43)C[C@@H]21 (stereo partly drawn) [Compound 192, 4-chloro-N-(1-((1R,3s,5S,6r)-3-(5-fluoro-2-oxo-2,3-dihydro-1H-benzo[d]imidazol-1-yl)bicyclo[3.1.0]hexan-6-yl)propyl)benzamide] |
| > 5000 | > 5000 | O=C(NCc1ccc(Cl)cc1)[C@H]1[C@@H]2CN(c3ncnc4ccc(F)cc34)C[C@@H]21 [Compound 251, (1R,5S,6r)-N-(4-chlorobenzyl)-3-(6-fluoroquinazolin-4-yl)-3-azabicyclo[3.1.0]hexane-6-carboxamide] |
| < 200 | 2000 to 5000 | CCC(NC(=O)c1ccc(Cl)cc1)[C@H]1[C@@H]2C[C@@H](NC(=O)c3cc(C(F)(F)F)ccn3)C[C@@H]21 (stereo partly drawn) [Compound 225, N-((1R,3s,5S,6r)-6-(1-(4-chlorobenzamido)propyl)bicyclo[3.1.0]hexan-3-yl)-4-(trifluoromethyl)picolinamide] |
| 200 to 2000 | 2000 to 5000 | CCC(NC(=O)c1ccc(Cl)cc1)[C@H]1[C@@H]2C[C@@H](N3CCOC3=O)C[C@@H]21 (stereo partly drawn) [Compound 185, 4-chloro-N-(1-((1R,3s,5S,6r)-3-(2-oxooxazolidin-3-yl)bicyclo[3.1.0]hexan-6-yl)propyl)benzamide] |
| < 200 | 500 to 2000 | C[C@@H](NC(=O)c1ccc(C#N)cc1)[C@H]1[C@@H]2C[C@@H](Oc3ncnc4ccc(F)cc34)C[C@@H]21 [Compound 131, 4-cyano-N-((S)-1-((1R,3R,5S,6r)-3-((6-fluoroquinazolin-4-yl)oxy)bicyclo[3.1.0]hexan-6-yl)ethyl)benzamide] |
| 200 to 2000 | 500 to 2000 | CCC(NC(=O)c1ccc(Cl)cc1)[C@H]1[C@@H]2C[C@@H](Nc3cc(F)cc(F)c3[N+](=O)[O-])C[C@@H]21 (stereo partly drawn) [Compound 243, 4-chloro-N-(1-((1R,3s,5S,6r)-3-((3,5-difluoro-2-nitrophenyl)amino)bicyclo[3.1.0]hexan-6-yl)propyl)benzamide] |
| 200 to 2000 | > 5000 | CCC(NC(=O)c1ccc(Cl)cc1)[C@H]1[C@@H]2C[C@@H](n3cccc4ncnc3-4)C[C@@H]21 (stereo partly drawn) [Compound 182, N-(1-((1R,3s,5S,6r)-3-(4H-imidazo[4,5-b]pyridin-4-yl)bicyclo[3.1.0]hexan-6-yl)propyl)-4-chlorobenzamide] |
| 200 to 2000 | 500 to 2000 | CCC(NC(=O)c1ccc(Cl)cc1)[C@H]1[C@@H]2C[C@H](n3cc(COCCOC)nn3)C[C@@H]21 (stereo partly drawn) [Compound 215, 4-chloro-N-(1-((1R,3r,5S,6r)-3-(4-((2-methoxyethoxy)methyl)-1H-1,2,3-triazol-1-yl)bicyclo[3.1.0]hexan-6-yl)propyl)benzamide] |
| 2000 to 5000 | > 5000 | CCC(NC(=O)c1ccc(Cl)cc1)[C@H]1[C@@H]2C[C@@H](n3cc(C4CN(C(=O)OC(C)(C)C)C4)nn3)C[C@@H]21 (stereo partly drawn) [Compound 233, tert-butyl 3-(1-((1R,3s,5S,6r)-6-(1-(4-chlorobenzamido)propyl)bicyclo[3.1.0]hexan-3-yl)-1H-1,2,3-triazol-4-yl)azetidine-1-carboxylate] |
| < 200 | 500 to 2000 | CCC(NC(=O)c1ccc(Cl)cc1)[C@H]1[C@@H]2C[C@@H](Nc3ncc(F)cc3[N+](=O)[O-])C[C@@H]21 (stereo partly drawn) [Compound 236, 4-chloro-N-(1-((1R,3s,5S,6r)-3-((5-fluoro-3-nitropyridin-2-yl)amino)bicyclo[3.1.0]hexan-6-yl)propyl)benzamide] |
